Test results taken from patent US20230143604A1, “QW DOSING OF GIP RECEPTOR AGONIST PEPTIDE COMPOUNDS AND USES THEREOF” (TAKEDA PHARMACEUTICAL COMPANY LIMITED, priority 2020, published 2023).
Starred links: 1 amine or outer side, 2 acyl side, 3 side chain; linkers in the order of their positions; H or OH if unused. Non-standard residues stand in square brackets, D forms with d. Residues, ends and D or L forms follow the SMILES beside them. Groups on a side chain read outwards from the residue. *: point of attachment. C18 diacid = O=C(O)CCCCCCCCCCCCCCCCC(=O)*; C17 diacid = O=C(O)CCCCCCCCCCCCCCCC(=O)*; γGlu = O=C(O)[C@H](CCC(=O)[*:2])N[*:1]; NMeY = CN[C@@H](Cc1ccc(O)cc1)C(=O)O; AEEA = NCCOCCOCC(=O)O; Aib = CC(C)(N)C(=O)O

Assay: physchem
Method: Solubility of the GIPR peptides may be determined by dissolution in a phosphate buffer followed by quantitation using liquid chromatography, for example, High Performance Liquid Chromatogry (HPLC). An illustrative method is provided. For determination of the solubility of the GIPr agonist peptides, 3 mg of peptides are weighted out in a small glass vial. 100 μL of 200 mM Phosphate buffer pH 7.4 are added and the vial is sonicated/votexed as necessary for a maximum of 1 min. […] If insoluble material is observed in the tube the addition of 100 μL of buffer and mixing is repeated until complete dissolution.
3 mg of peptides are weighted out in a small glass vial. 100 uL of 200 mM Phosphate buffer pH 7.4 are added and the vial is sonicated/votexed as necessary for a maximum of 1 min. […] If insoluble material is observed in the tube the addition of 100 uL of buffer and mixing is repeated until complete dissolution.

| Compound | solubility (pH 7.4) [mg/mL] | solubility (pH 7.4, aqueous buffer) [mg/mL] |
| --- | --- | --- |
| CC[C@H](C)[C@H](NC(=O)[C@H](CO)NC(=O)[C@H](Cc1ccc(O)cc1)NC(=O)[C@H](CC(=O)O)NC(=O)[C@H](CO)NC(=O)[C@@H](NC(=O)[C@H](Cc1ccccc1)NC(=O)[C@@H](NC(=O)CNC(=O)[C@H](CCC(=O)O)NC(=O)C(C)(C)NC(=O)[C@H](Cc1ccc(O)cc1)NC)[C@@H](C)O)[C@@H](C)CC)C(=O)N[C@@H](C)C(=O)N[C@@H](CC(C)C)C(=O)N[C@@H](CC(=O)O)C(=O)N[C@@H](CCCNC(=N)N)C(=O)N[C@H](C(=O)N[C@@H](Cc1c[nH]cn1)C(=O)N[C@@H](CCC(N)=O)C(=O)N[C@@H](CCC(N)=O)C(=O)N[C@@H](CC(N)=O)C(=O)N[C@@H](Cc1ccccc1)C(=O)N[C@H](C(=O)N[C@@H](CC(N)=O)C(=O)N[C@@H](Cc1c[nH]c2ccccc12)C(=O)N[C@@H](CC(C)C)C(=O)N[C@@H](CC(C)C)C(=O)N[C@@H](C)C(=O)N[C@@H](CCC(N)=O)C(=O)N[C@@H](CCCCNC(=O)COCCOCCNC(=O)COCCOCCNC(=O)CC[C@H](NC(=O)CCCCCCCCCCCCCCCCC(=O)O)C(=O)O)C(N)=O)C(C)C)[C@@H](C)CC [Compound 5] (H-[NMeY][Aib]EGTFISDYSIALDRIHQQNFVNWLLAQK([AEEA-AEEA-γGlu-C18 diacid])-NH2) | ≥ 15 | ≥ 27 |
| CC[C@H](C)[C@H](NC(=O)[C@H](CO)NC(=O)[C@H](Cc1ccc(O)cc1)NC(=O)[C@H](CC(=O)O)NC(=O)[C@H](CO)NC(=O)[C@@H](NC(=O)[C@H](Cc1ccccc1)NC(=O)[C@@H](NC(=O)CNC(=O)[C@H](CCC(=O)O)NC(=O)C(C)(C)NC(=O)[C@H](Cc1ccc(O)cc1)NC)[C@@H](C)O)[C@@H](C)CC)C(=O)N[C@@H](C)C(=O)N[C@@H](CCCCNC(=O)COCCOCCNC(=O)COCCOCCNC(=O)CC[C@H](NC(=O)CCCCCCCCCCCCCCCCC(=O)O)C(=O)O)C(=O)N[C@@H](CC(=O)O)C(=O)N[C@@H](CCCNC(=N)N)C(=O)NC(C)(C)C(=O)N[C@@H](C)C(=O)N[C@@H](CCC(N)=O)C(=O)NC(C)(C)C(=O)N[C@@H](CC(N)=O)C(=O)N[C@@H](Cc1ccccc1)C(=O)N[C@H](C(=O)N[C@@H](CC(N)=O)C(=O)N[C@@H](Cc1c[nH]c2ccccc12)C(=O)N[C@@H](CC(C)C)C(=O)N[C@@H](CC(C)C)C(=O)N[C@@H](C)C(=O)N[C@@H](CCC(N)=O)C(=O)N[C@@H](CCCCN)C(N)=O)C(C)C [Compound 6] (H-[NMeY][Aib]EGTFISDYSIAK([AEEA-AEEA-γGlu-C18 diacid])DR[Aib]AQ[Aib]NFVNWLLAQK-NH2) |  | ≥ 15 |
| CC[C@H](C)[C@H](NC(=O)[C@H](CO)NC(=O)[C@H](Cc1ccc(O)cc1)NC(=O)[C@H](CC(=O)O)NC(=O)[C@H](CO)NC(=O)[C@@H](NC(=O)[C@H](Cc1ccccc1)NC(=O)[C@@H](NC(=O)CNC(=O)[C@H](CCC(=O)O)NC(=O)C(C)(C)NC(=O)[C@H](Cc1ccc(O)cc1)NC)[C@@H](C)O)[C@@H](C)CC)C(=O)N[C@@H](C)C(=O)N[C@@H](CCCCNC(=O)COCCOCCNC(=O)COCCOCCNC(=O)CC[C@H](NC(=O)CC[C@H](NC(=O)CCCCCCCCCCCCCCCC(=O)O)C(=O)O)C(=O)O)C(=O)N[C@@H](CC(=O)O)C(=O)N[C@@H](CCCNC(=N)N)C(=O)NC(C)(C)C(=O)N[C@@H](C)C(=O)N[C@@H](CCC(N)=O)C(=O)NC(C)(C)C(=O)N[C@@H](CC(N)=O)C(=O)N[C@@H](Cc1ccccc1)C(=O)N[C@H](C(=O)N[C@@H](CC(N)=O)C(=O)N[C@@H](Cc1c[nH]c2ccccc12)C(=O)N[C@@H](CC(C)C)C(=O)N[C@@H](CC(C)C)C(=O)N[C@@H](C)C(=O)N[C@@H](CCC(N)=O)C(=O)N[C@@H](CCCNC(=N)N)C(=O)O)C(C)C [Compound 7] (H-[NMeY][Aib]EGTFISDYSIAK([AEEA-AEEA-γGlu-γGlu-C17 diacid])DR[Aib]AQ[Aib]NFVNWLLAQR-OH) | ≥ 15 | ≥ 30 |
| CC[C@H](C)[C@H](NC(=O)[C@H](CO)NC(=O)[C@H](Cc1ccc(O)cc1)NC(=O)[C@H](CC(=O)O)NC(=O)[C@H](CO)NC(=O)[C@@H](NC(=O)[C@H](Cc1ccccc1)NC(=O)[C@@H](NC(=O)CNC(=O)[C@H](CCC(=O)O)NC(=O)C(C)(C)NC(=O)[C@H](Cc1ccc(O)cc1)NC)[C@@H](C)O)[C@@H](C)CC)C(=O)N[C@@H](C)C(=O)N[C@@H](CC(C)C)C(=O)N[C@@H](CC(=O)O)C(=O)N[C@@H](CCCNC(=N)N)C(=O)NC(C)(C)C(=O)N[C@@H](C)C(=O)N[C@@H](CCC(N)=O)C(=O)NC(C)(C)C(=O)N[C@@H](CCCCNC(=O)COCCOCCNC(=O)COCCOCCNC(=O)CC[C@H](NC(=O)CC[C@H](NC(=O)CCCCCCCCCCCCCCCC(=O)O)C(=O)O)C(=O)O)C(=O)N[C@@H](Cc1ccccc1)C(=O)N[C@H](C(=O)N[C@@H](CC(N)=O)C(=O)N[C@@H](Cc1c[nH]c2ccccc12)C(=O)N[C@@H](CC(C)C)C(=O)N[C@@H](CC(C)C)C(=O)N[C@@H](C)C(=O)N[C@@H](CCC(N)=O)C(=O)N[C@@H](CCCNC(=N)N)C(=O)O)C(C)C [Compound 9] (H-[NMeY][Aib]EGTFISDYSIALDR[Aib]AQ[Aib]K([AEEA-AEEA-γGlu-γGlu-C17 diacid])FVNWLLAQR-OH) | ≥ 15 | ≥ 30 |
| CC[C@H](C)[C@H](NC(=O)[C@H](CO)NC(=O)[C@H](Cc1ccc(O)cc1)NC(=O)[C@H](CC(=O)O)NC(=O)[C@H](CO)NC(=O)[C@@H](NC(=O)[C@H](Cc1ccccc1)NC(=O)[C@@H](NC(=O)CNC(=O)[C@H](CCC(=O)O)NC(=O)C(C)(C)NC(=O)[C@H](Cc1ccc(O)cc1)NC)[C@@H](C)O)[C@@H](C)CC)C(=O)N[C@@H](C)C(=O)N[C@@H](CCCCNC(=O)COCCOCCNC(=O)COCCOCCNC(=O)CC[C@H](NC(=O)CCCCCCCCCCCCCCCC(=O)O)C(=O)O)C(=O)N[C@@H](CC(=O)O)C(=O)N[C@@H](CCCNC(=N)N)C(=O)NC(C)(C)C(=O)N[C@@H](C)C(=O)N[C@@H](CCC(N)=O)C(=O)NC(C)(C)C(=O)N[C@@H](CC(N)=O)C(=O)N[C@@H](Cc1ccccc1)C(=O)N[C@H](C(=O)N[C@@H](CC(N)=O)C(=O)N[C@@H](Cc1c[nH]c2ccccc12)C(=O)N[C@@H](CC(C)C)C(=O)N[C@@H](CC(C)C)C(=O)N[C@@H](C)C(=O)N[C@@H](CCC(N)=O)C(=O)N[C@@H](CO)C(=O)O)C(C)C [Compound 10] (H-[NMeY][Aib]EGTFISDYSIAK([AEEA-AEEA-γGlu-C17 diacid])DR[Aib]AQ[Aib]NFVNWLLAQS-OH) | ≥ 15 | ≥ 30 |
